This note sets out measurements from ChEMBL document CHEMBL1201862, “PubChem BioAssay data set” (2004).

Each structure is given as a SMILES string.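 Briefly, cells in 96-well plates were exposed to five compound concentrations for 48 h, and endpoints were estimated by linear interpolation. Here, GI50 denotes the concentration required for 50% inhibition of growth.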 The source made the active and inactive calls. No stated cut-off is given here; in the data, active = GI50 up to about 1.1 µM and inactive = higher.

One may read the GI50 as the concentration that inhibits growth by half.

Test systems include A498; A549; BT-549; DU-145; HCC 2998; HL-60; HOP-62; KM12; MCF7; OVCAR-3; OVCAR-5; PC-3; SF-268; SNB-75; T47D; UACC-62; SK-MEL-28.
What all share (test): DTP human tumour cell line panel, 48 h

As to `Cc1ncc([N+](=O)[O-])n1CCNC(=O)CCCCCn1ccnc1[N+](=O)[O-]`, the GI50 with A498, in the experiment with A549, with BT-549, in the experiment on DU-145, with HCC 2998 and with HL-60 was > 100 µM (inactive) each time. Moreover, the GI50 with HOP-62, in the experiment on KM12, in the experiment with MCF7, in the experiment on OVCAR-3, in the experiment with OVCAR-5 and with PC-3 was > 100 µM (inactive) in each case. Moreover, the GI50 with SF-268, in the experiment on SNB-75, in the experiment with T47D and in the experiment with UACC-62 was > 100 µM (inactive) each time.
Regarding `Cc1nc2ccc(NC3OC(CO)C(O)C(O)C3O)cc2c(=O)n1-c1ccccc1` (stereo not given), the GI50 in the experiment with A498, in the experiment on BT-549, with DU-145, in the experiment with HCC 2998, with HL-60 and with HOP-62 was > 100 µM (inactive) each time. Besides, the GI50 in the experiment with KM12 is 92.7 µM (inactive); in the experiment with MCF7, > 100 µM (inactive); in the experiment on OVCAR-3, > 100 µM (inactive); with OVCAR-5, > 100 µM (inactive); with PC-3, > 100 µM (inactive); in the experiment on SF-268, > 100 µM (inactive). Also, the GI50 with SK-MEL-28, with SNB-75, in the experiment on T47D and with UACC-62 was > 100 µM (inactive) in each case.
With `C/C(=N/NC(=S)N1CC2CCC(CC2)C1)c1cnccn1`, the GI50 in the experiment with A498 is 1.73 µM (inactive); in the experiment with A549, < 0.01 µM (active); in the experiment with BT-549, 0.993 µM (active); with DU-145 it was 0.376 µM (active); in the experiment on HCC 2998, 0.218 µM (active); with HL-60, < 0.01 µM (active). In addition, the GI50 in the experiment on HOP-62 is < 0.01 µM (active); with MCF7 it was < 0.01 µM (active); with OVCAR-3, < 0.01 µM (active); in the experiment on OVCAR-5, 0.255 µM (active); in the experiment with PC-3, < 0.01 µM (active); in the experiment on SF-268, < 0.01 µM (active). For the same molecule, the GI50 was 1.64 µM (inactive) in the experiment on SK-MEL-28, 0.828 µM (active) with SNB-75, < 0.0461 µM (active) with T47D and < 0.023 µM (active) with UACC-62.
`Nc1ccn(C2OC(COP(=O)(O)O)C(O)C2O)c(=O)n1` (stereo not given): the GI50 in the experiment on A498 was 26.8 µM (inactive); with A549, 0.422 µM (active); in the experiment with BT-549 it was > 100 µM (inactive); in the experiment with DU-145 it was 1.19 µM (inactive); in the experiment with HCC 2998 it was > 100 µM (inactive); in the experiment with HL-60, 0.205 µM (active). For the same molecule, the 50% growth inhibitory concentration (GI50) with HOP-62 is 0.951 µM (active); in the experiment on KM12, > 100 µM (inactive); in the experiment on MCF7 it was 1.31 µM (inactive); with OVCAR-3, > 100 µM (inactive); with OVCAR-5, > 100 µM (inactive); in the experiment on PC-3 it was > 100 µM (inactive). The GI50 with SF-268 is 10.9 µM (inactive); with SNB-75 it was 28.8 µM (inactive); in the experiment on T47D it was 42 µM (inactive); with UACC-62, 10.9 µM (inactive).
For `CCOC(=O)C1(C#N)C(=O)c2cc[n+](CC[n+]3ccc4c(c3)C(=O)C(C#N)(C(=O)OCC)C4=O)cc2C1=O` (stereo not given), the GI50 with A498 is > 100 µM (inactive); in the experiment with A549 it was > 100 µM (inactive); in the experiment on BT-549 it was > 100 µM (inactive); in the experiment with DU-145, > 100 µM (inactive); in the experiment on HCC 2998, > 100 µM (inactive); in the experiment on HL-60 it was 83.4 µM (inactive). The GI50 in the experiment on KM12 was > 100 µM (inactive); with MCF7, > 100 µM (inactive); with OVCAR-3 it was 25.4 µM (inactive); in the experiment on OVCAR-5, > 100 µM (inactive); in the experiment on PC-3 it was > 100 µM (inactive); with SF-268 it was 96.8 µM (inactive). Also, the GI50 was > 100 µM (inactive) with SK-MEL-28, > 100 µM (inactive) in the experiment with SNB-75, 53.3 µM (inactive) in the experiment on T47D and > 100 µM (inactive) in the experiment with UACC-62.
